According to patent publication US20170028005A1, “NATURAL SWEETENER” (NATGOOD IP, LLC, priority 2014, published 2017):

Key:
blood glucose level [1] = conditions: values used for the expected GI; cited from earlier work
blood glucose response [2] = experiment: A Glycemic Response Test; type: in vivo; conditions: 30 grams in water after fast; blood glucose every 15 minutes for 90 minutes
Description: Under an Institutional Review Board approved, controlled clinical trial, subjects undergo a pre-test fast for at least 20 hours and then consume 30 grams of glucose, or an equal amount of sweetener in water. Blood glucose measurements are then made every 15 minutes for 90 minutes and the blood glucose response is recorded. A sweetener is considered to pass the test when then blood glucose response is less than 5% of glucose.

blood glucose response [3] = experiment: A Repression Test; type: in vivo; set-up: key: PASS: pass the repression test when then blood glucose response is much lower than expected for the combination of; conditions: product (e.g. cupcake) with other nutritive carbohydrates
Description: Under controlled study scenario subjects fast, then consume a product (e.g. a cupcake) that contains other nutritive carbohydrates and the glycemic response is assessed by established methods. The glycemic response to the nutritive carbohydrates is compared to the glycemic response to the nutritive carbohydrates in the presence of the sweetener or sugar.

The Caramelization Test = type: physicochemical; conditions: 1 cup sweetener with 1/2 cup water until it browns
Source text: 1 cup of caramelized sugar or 1 cup of sweetener is mixed with ½ cup of water and swirled to mix until it browns. A sweetener is considered to pass the test and be enough like sugar when it browns within 25% of the time when the sugar browns.

[4] = Acute randomized controlled trial: adverse events symptom score; type: in vivo, human
Description: An acute randomized controlled trial was carried out to investigate the effects of an NSC of the type disclosed herein on postprandial insulin, glucose and fructose responses.
Subjects (N=15) men and non-pregnant, non-lactating women, 18-75 years of age each with a BMI of 18-40 kg/m^2 inclusive and normal glycemia and (i) fasting serum glucose <126 mg/dl (<7.0 mmol/l) (or in whole blood ≦6.1 mmol/L); (ii) blood pressure <130/85; (iii) no prescription drugs within 1 month of the first study visit after screening except for the birth control pill, lipid lowering medications or small doses of anxiolytics/sedatives to assist sleeping; and (iv) no major illness or surgery requiring hospitalization within 3 months of the first study visit after screening.
The test foods consisted of 2 isovolumetric beverages: 30 g sucrose control and 30 g of sweetener blend dissolved in 500 ml water. The sucrose test meal acted as the control. Test meals were administered in a randomized order.
Adverse events reported following ingestion of the meals containing either an NSC of the type disclosed herein or sucrose included bloating, belching, nausea, diarrhea and flatulence. Each issue was scored and record for the time period indicated in Table 5 which provides the symptom score (mm) for: Bloating, Belching, Nausea, Diarrhea and Flatulence at 0 min, 120 min, before Dinner (D) and before breakfast (B).

blood glucose level [5] = experiment: Glycemic index (GI) of NSC formulations (Example 2); type: in vivo, human
Description: Glycemic index can be measured by any suitable methodology. For example, to determine a food's GI value, measured portions of the food containing 50 grams of available carbohydrate (or 25 grams of available carbohydrate for foods that contain lower amounts of carbohydrate) may be fed to 10 healthy people after an overnight fast. Finger-prick blood samples can be taken at 15-30 minute intervals over the next two hours. These blood samples can be used to construct a blood sugar response curve for the two hour period. The incremental area under the curve (iAUC) is calculated to reflect the total rise in blood glucose levels after eating the test food. The GI value is calculated by dividing the iAUC for the test food by the iAUC for the reference food (same amount of glucose) and multiplying by 100. The average of the GI ratings from all ten subjects is designated as the GI for that food. […] The effect on the GI response for different NSC formulations was assessed. Four formulations, designated F1-F4, containing tagatose, monkfruit, stevia extract, erythritol, xanthan gum and either maltitol or lactitol were prepared as indicated in Table 1. The glycemic index for each formulation was calculated based on the glycemic index for the individual components taking into account the weight percent of the component in the formulation. Monkfruit, xanthan gum, and stevia extract have a glycemic index of 0, erythritol has a glycemic index of 1 while tagatose has a glycemic index of 3. Maltitol has a glycemic index of 35 while lactitol has a glycemic index of 5. Fifteen subjects were evaluated and the GI calculated as described previously herein.

For `OC[C@@H](O)[C@@H](O[C@@H]1O[C@H](CO)[C@H](O)[C@H](O)[C@H]1O)[C@H](O)[C@@H](O)CO` [lactitol], the “glycemic index of individual component” value (blood glucose level [1]) is listed as 5.
With `O=C(CO)C(O)C(O)C(O)CO` (stereo not shown) [Allulose] the Glycemic test (blood glucose response [2]) was “PASS (pass the test when then blood glucose response is less than 5% of glucose)” and the Repression test (blood glucose response [3]) was “PASS”.
In the case of `O=C(CO)[C@@H](O)[C@@H](O)[C@H](O)CO` [Tagatose, (3S,4S,5R)-1,3,4,5,6-pentahydroxy-hexan-2-one], the Caramelization test (The Caramelization Test) is reported as “FAIL-”, the Glycemic test (blood glucose response [2]) is reported as “PASS (pass the test when then blood glucose response is less than 5% of glucose)” and the Repression test (blood glucose response [3]) is reported as “FAIL”. For the same compound, the “glycemic index of individual component” value (blood glucose level [1]) was 3.
For `OC[C@@H](O)[C@@H](O)CO` [Erythritol, erythritol], the Glycemic test (blood glucose response [2]) is listed as “PASS (pass the test when then blood glucose response is less than 5% of glucose)”, the Repression test (blood glucose response [3]) is listed as “FAIL” and the “glycemic index of individual component” value (blood glucose level [1]) is listed as 1.
In the case of `OC[C@H]1O[C@@](CO)(O[C@H]2O[C@H](CO)[C@@H](O)[C@H](O)[C@H]2O)[C@@H](O)[C@@H]1O` [Sugar, sucrose], the Belching symptom score ([4]; 0 min) is reported as 0.60 mm, the Bloating symptom score ([4]; 0 min) is reported as 7.93 mm and the Diarrhea symptom score ([4]; 0 min) is reported as 0.27 mm. For the same compound, the Flatulence symptom score ([4]; 0 min) was 1.47 mm, the Nausea symptom score ([4]; 0 min) was 0.33 mm and the Belching symptom score ([4]; 120 min) was 0.40 mm. For the same compound, the Bloating symptom score ([4]; 120 min) was 4.67 mm, the Diarrhea symptom score ([4]; 120 min) was 0.80 mm and the Flatulence symptom score ([4]; 120 min) was 1.40 mm. It also gave a Nausea symptom score ([4]; 120 min) of 1.87 mm, a Belching symptom score ([4]; before Dinner (D)) of 1.79 mm and a Bloating symptom score ([4]; before Dinner (D)) of 5.43 mm. For the same compound, the Diarrhea symptom score ([4]; before Dinner (D)) was 6.93 mm, the Flatulence symptom score ([4]; before Dinner (D)) was 8.93 mm and the Nausea symptom score ([4]; before Dinner (D)) was 2.57 mm. For the same compound, the Belching symptom score ([4]; before breakfast (B)) was 0.57 mm, the Bloating symptom score ([4]; before breakfast (B)) was 5.71 mm and the Diarrhea symptom score ([4]; before breakfast (B)) was 5.79 mm. For the same compound, the Flatulence symptom score ([4]; before breakfast (B)) was 7.50 mm, the Nausea symptom score ([4]; before breakfast (B)) was 0.57 mm and the Caramelization test (The Caramelization Test) was “PASS (pass the test and be enough like sugar when it browns within 25% of the time when the sugar browns)”. For the same compound, the Glycemic test (blood glucose response [2]) was “FAIL”, the “Expected GI” value (blood glucose level [5]; calculated from GI of individual components and their weight percent) was 65 and the “Observed GI” value (blood glucose level [5]; fifteen subjects) was 65. For the same compound, the “Glycemic Index” value (blood glucose level [5]; sweetener ingredient of the cake mix, Table 2) was 65 for sugar and the Repression test (blood glucose response [3]) was “FAIL”.
For `OC[C@@H](O)[C@@H](O[C@H]1O[C@H](CO)[C@@H](O)[C@H](O)[C@H]1O)[C@H](O)[C@@H](O)CO` [Maltitol, maltitol], the “glycemic index of individual component” value (blood glucose level [1]) is listed as 35.
